1 compound from PMC7782785, “Outer-membrane-acting peptides and lipid II-targeting antibiotics cooperatively kill Gram-negative pathogens” (Communications Biology, 2021) can be followed below.

Assay [1] deals with five Gram-negative strains. The assay can be described thus: Bactericidal effect testing. It is filed as cell-based. The note with it: 10-fold MIC (alone or in combination), CAMHB, 37 °C, 3 h, plating on LB agar; no colonies of any of the five strains. The method, then: After that, 50 µL of a 10^3-fold diluted sample were plated on LB agar[59].
The subject of assay [2] is K. pneumoniae LMG 20218. The experiment in a line: Antimicrobial activity in blood (ex vivo bacteremia model). It is filed as cell-based. The note with it: human blood, 10^8 CFU/mL inoculum, 37 °C, alone or (combination) with 4 µM D-11, triplicate. The method, then: Briefly, blood from healthy donors was obtained from Sanquin (certified Dutch organization responsible for meeting the need in healthcare for blood and blood products, https://www.sanquin.nl/) and infected with 10^8 CFU/mL of K. pneumoniae LMG 20218. […] At 1, 2, 4, and 6 h 100 µL samples were taken from each one of the tubes and decimal serially diluted in PBS. Drops of 10 µL of each one of the dilutions were spotted on LB agar medium to follow the development of the infection. The experiment was performed in triplicate. Non-infected blood, infected blood, and blood plus peptide were used as a control.

In assay [3] the test system is K. pneumoniae LMG 20218. As to conditions: K. pneumoniae. The procedure: For the synergy test, standard checkerboard broth microdilution assays were conducted to test the synergistic effect of combined antimicrobials using the same condition as before[51],[56]. […] The initial concentration of both peptides was their individual MIC. 50 µL fresh bacterial suspension prepared as above was added to the wells already containing the antimicrobial compound mixture to achieve 100 µL final volume per well.
The fractional inhibitory concentration (FIC) indices[57] were calculated using the formula FICI = FICa + FICb = MICac/MICa + MICbc/MICb, to determine whether the combination is additive, synergistic or antagonistic[51],[57]. The MICa and MICb is the MIC of compound A or B alone, respectively. MICac is the MIC of compound A in combination with compound B and MICbc is the MIC of compound B when it was combined with compound A. The FIC corresponds to the MIC of a compound in combination with the other compound, divided by the MIC of the compound alone. FICa is FIC of compound A while FICb is FIC of compound B. The FICI was interpreted according to EUCAST[58] as follows: synergistic, FICI ≤ 0.5; additive,0.5 < FICI ≤ 1; indifferent, 1 < FICI < 2; antagonistic, FICI ≥ 2.
The condition for the tests and the analysis of the plates were performed as described above for the MIC tests.

Assay [4] has as its system A. baumannii ATCC 17978. The experiment in a line: microbe, parasite or virus in culture. It is filed as cell-based. The note with it: Acinetobacter baumannii, ATCC17978, read-out: MIC alone (MICA vancomycin, MICB D-11). The method, then: (§1) MIC tests were performed in triplicate by liquid growth inhibition microdilution assays in sterile polypropylene microtiter plates according to the Clinical and Laboratory Standards Institute (CLSI) guideline for bacteria that grow aerobically. Briefly, the indicator strains were first streaked on the appropriate agar plate, and then single colonies were picked and incubated overnight in liquid broth. The final inoculum of bacteria was 5*10^5 CFU/mL prepared in CAMHB (cationic adjusted Mueller–Hinton broth, Sigma-Aldrich) or CAMHB plus 5% of lysed horse blood (TCS Biosciences, Buckingham, UK) in the case of S. pneumoniae. The antimicrobials were 2-fold serially diluted and 50 µL diluted bacterial suspension was added to each well to make the final volume 100 µL. The microtiter plates and the count plates were incubated at 37 °C for 16–20 h without shaking. Growth inhibition was assessed by measuring the OD600 using a microplate reader (Tecan Infinity F200). The lowest concentration of the antimicrobials that inhibits visible growth of the indicator strain is identified as the MIC value.

Assay [5] has as its system E. coli ATCC BAA-2452. The assay can be described thus: microbe, parasite or virus in culture. It is filed as cell-based. As to conditions: Escherichia coli, ATCCBAA2452, read-out: MIC alone (MICA vancomycin, MICB D-11). The method, then:
as §1

In assay [6] the test system is P. aeruginosa PA14. The assay can be described thus: microbe, parasite or virus in culture. It is filed as cell-based. As to conditions: Pseudomonas aeruginosa, PA14, read-out: MIC alone (MICA vancomycin, MICB D-11). The method, then:
as §1

For assay [7], the system named is P. aeruginosa ATCC BAA-2108. The experiment in a line: microbe, parasite or virus in culture. It is filed as cell-based. The note with it: Pseudomonas aeruginosa, ATCCBAA2108, read-out: MIC alone (MICA vancomycin, MICB D-11). The method, then: as §1
Assay [8] has as its system A. baumannii ATCC BAA-1605. The assay can be described thus: microbe, parasite or virus in culture. Type of assay: cell-based. As to conditions: Acinetobacter baumannii, ATCCBAA1605, read-out: MIC alone (MICA vancomycin, MICB D-11). The method, then: as §1
The subject of assay [9] is K. pneumoniae ATCC700603. The experiment in a line: microbe, parasite or virus in culture. It is filed as cell-based. As to conditions: Klebsiella pneumoniae, ATCC700603, read-out: MIC alone (MICA vancomycin, MICB D-11). The procedure: as §1
The test system of assay [10] is E. coli ATCC 25922. The experiment in a line: microbe, parasite or virus in culture. It is filed as cell-based. The note with it: Escherichia coli, ATCC25922, read-out: MIC alone (MICA vancomycin, MICB D-11). The method, then: as §1
Assay [11] relates to P. aeruginosa ATCC 27853. The assay can be described thus: microbe, parasite or virus in culture. It is filed as cell-based. As to conditions: Pseudomonas aeruginosa, ATCC27853, read-out: MIC alone (MICA vancomycin, MICB D-11). The procedure: as §1
The test system of assay [12] is P. aeruginosa B1954. The experiment in a line: microbe, parasite or virus in culture. Type of assay: cell-based. The note with it: Pseudomonas aeruginosa, B1954, read-out: MIC alone (MICA vancomycin, MICB D-11). The method, then:
as §1

In assay [13] the test system is A. baumannii B2026. The assay can be described thus: microbe, parasite or virus in culture. It is filed as cell-based. As to conditions: Acinetobacter baumannii, B2026, read-out: MIC alone (MICA vancomycin, MICB D-11). The procedure:
as §1

Assay [14] relates to K. pneumoniae ATCC BAA-2524. The experiment in a line: microbe, parasite or virus in culture. It is filed as cell-based. As to conditions: Klebsiella pneumoniae, ATCCBAA2524, read-out: MIC alone (MICA vancomycin, MICB D-11). The procedure:
as §1

Assay [15] concerns K. pneumoniae B1945. The experiment in a line: microbe, parasite or virus in culture. It is filed as cell-based. The note with it: Klebsiella pneumoniae, B1945, read-out: MIC alone (MICA vancomycin, MICB D-11). The procedure:
as §1

The subject of assay [16] is E. coli B1927. The assay can be described thus: microbe, parasite or virus in culture. It is filed as cell-based. The note with it: Escherichia coli, B1927, read-out: MIC alone (MICA vancomycin, MICB D-11). The procedure: as §1

≈ marks a conversion by molar mass, not a printed value.

For the compound `CN[C@H](CC(C)C)C(=O)N[C@H]1C(=O)N[C@@H](CC(N)=O)C(=O)N[C@H]2C(=O)N[C@H]3C(=O)N[C@H](C(=O)N[C@H](C(=O)O)c4cc(O)cc(O)c4-c4cc3ccc4O)[C@H](O)c3ccc(c(Cl)c3)Oc3cc2cc(c3O[C@@H]2O[C@H](CO)[C@@H](O)[C@H](O)[C@H]2O[C@H]2C[C@](C)(N)[C@H](O)[C@H](C)O2)Oc2ccc(cc2Cl)[C@H]1O` [Vancomycin], in assay [1], the bactericidal effect entry was “bactericidal”. In addition, the “bacterial count in infected whole blood after 6 h” value is 10^12 CFU/mL in assay [2] (vancomycin 2 µM), 10^12 CFU/mL in assay [2] (vancomycin 4 µM), 10^12 CFU/mL in assay [2] (vancomycin 8 µM) and 10^10 CFU/mL in assay [2] (vancomycin 16 µM). Besides, in assay [3] (checkerboard after the addition of excess LPS (1.0 mg/mL)), the “vancomycin concentration needed in combination with D-11” value is listed as “at least 32 µM”. Besides, in assay [3] (checkerboard without the addition of LPS), the “vancomycin concentration inhibiting growth in combination with 1 µM D-11” value was found to be 2 µM. Besides, the MIC in assay [4] was 88.3 µM (≈ 128 µg/mL); in assay [5] it was > 88.3 µM; in assay [6], 88.3 µM (≈ 128 µg/mL); in assay [7], > 88.3 µM; in [8] it was 44.2 µM (≈ 64 µg/mL); in assay [9], > 88.3 µM. The MIC in assay [10] is > 88.3 µM; in assay [11], > 88.3 µM; in assay [12], 88.3 µM (≈ 128 µg/mL); in assay [13] it was 22.1 µM (≈ 32 µg/mL); in assay [14] it was > 88.3 µM; in assay [15], > 88.3 µM. Besides, in assay [16], the MIC came to 88.3 µM (≈ 128 µg/mL).
